Measured values as given in US10041937B2, “Macrophage identification agent, and identification method, sorting method, evaluation method, screening method and kit using the macrophage identifier agent” (CANON KABUSHIKI KAISHA, priority 2013, dated 2018).

Legend:
[1] = test system: mixture of the M1 macrophages and the M2 macrophages; test: Sorting of subtypes from a mixture of M1 and M2 macrophages with an FACS apparatus; assay type: cell-based, mouse; details: compound 1 μM; for sorting of identified M1 and M2 macrophages: FACS apparatus; for subtype more strongly stained: mixed M1 and M2 macrophages
[2] = test system: M1 macrophages and M2 macrophages differentiated from mouse bone marrow cells; test: Subtype identification by staining and flow cytometry of M1 and M2 macrophages differentiated from mouse bone marrow cells; assay type: cell-based, Balb/c mouse; details: for difference in the staining intensity between the M1 macrophages and the M2 macrophages / identification: mouse bone marrow derived; for Selectivity: subtype strongly stained
In short: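 Balb/c mouse bone marrow cells were differentiated to macrophages with 50 ng/mL M-CSF over two 3–4-day periods, then polarized for 3 days to M1 (interferon-γ plus polyliposaccharide) or M2 (IL-4). Live cells (aqua dye-negative) were analysed by flow cytometry; resolution R = |FM1−FM2|/(WM1+WM2) from histogram peak positions and widths indexed subtype discrimination.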

[3] = test system: M1 macrophages and M2 macrophages differentiated from THP-1 cells; test: Identification of macrophage subtypes differentiated from human cell line THP-1; assay type: cell-based; details: for Resolution ratio R / Evaluation of macrophage subtype identification: M1 vs M2 macrophages differentiated from THP-1 cells; for Resolution ratio R: channel listed per compound (Table 6); for Evaluation of macrophage subtype identification: class based on resolution R (Table 6); for Peak position of M1 macrophage: THP-1-derived M1 macrophages; for Peak position of M1 macrophage / Peak position of M2 macrophage: fluorescence intensity peak by flow cytometry in the channel listed per compound (Table 6); for Peak position of M2 macrophage: THP-1-derived M2 macrophages; for Selectivity: subtype strongly stained, THP-1-derived macrophages (Table 6); for difference in the staining intensity between the M1 macrophages and the M2 macrophages / identification: THP-1 derived
Procedure: The fluorescent signals derived from the compounds (3), (4), (6), (7), (9), (11) to (13), (15), (17), (19) to (26), (28), (30) to (33), (35), (36), (38), (42) to (45), (48) to (62), (65), (67), (74) to (76), (82), (83) and (85) and the comparative compounds (1) and (2) were measured in channels suitable to the respective compounds. Histograms were prepared by plotting fluorescence intensities obtained in the respective channels on the abscissa and plotting the numbers of cells at each fluorescence intensity on the ordinate. A difference between a fluorescence intensity (FM1) at a peak top of the histogram of the M1 macrophage and a fluorescence intensity (FM2) at a peak top of the histogram of the M2 macrophage is divided by a sum of a peak width (WM1) of the histogram of the M1 macrophage and a peak width (WM2) of the histogram of the M2 macrophage, so as to obtain a resolution R, which was used as an index of the identification ability for a subtype (see the following expression (1)). Resolution R=|FM1−FM2|/(WM1+WM2) Expression (1)
Based on the thus obtained values of the resolution R, the identification abilities for the subtypes of the compounds (3), (4), (6), (7), (9), (11) to (13), (15), (17), (19) to (26), (28), (30) to (33), (35), (36), (38), (42) to (45), (48) to (62), (65), (67), (74) to (76), (82), (83) and (85) and the comparative compounds (1) and (2) were evaluated as any of A to C according to the following criteria, and if the resolution R was 0.15 or more, the compound was determined to be good in the subtype identification.
The subtypes were identified by using the compound (1) in the same manner as in Example 1 except that the macrophage subtypes differentiated from the mouse bone marrow cells were changed to macrophage subtypes differentiated from a cell line established from human acute monocytic leukemia.
The culture of subtypes was performed with reference to NPL 10. Specifically, THP-1 cells purchased from JCRB Cell Bank of National Institute of Biomedical Innovation, that is, a cell line established from human acute monocytic leukemia, were subcultured several times, and the resultant cells were dispersed to a concentration of 5.0×10^5/mL in an RPMI1640 containing 10% FBS and 1% P/S, and 5.0×10^6 cells were seeded in a 100 mm dish. The monocytes were differentiated into macrophages by incubating the resultant in the presence of 5% CO2 at 37° C. for 2 days with 500 ng of PMA added thereto. After exchanging the medium, by adding 200 ng of interferon-γ and 1 μg of polyliposaccharide (both manufactured by Pepro Tech) to the medium, the cells were differentiated to the subtype M1. Besides, by adding 200 ng of IL-4 and IL-13, the cells were differentiated to the subtype M2. After incubation performed in the presence of 5% CO2 at 37° C. for 24 hours, the resultant was rinsed with PBS, and PBS containing 0.25% trypsin and 1 mM EDTA (ethylenediaminetetraacetic acid) was used for collecting, from the dish, the macrophages having been differentiated to the subtypes M1 and M2.
Specifically, fluorescent signals derived from the compounds (1) (3) (4) (12) and (15) were measured by using the channels which are appropriate for each of the compounds and the identification abilities for the subtypes of the compounds were evaluated based on the values of the resolution R.

[4] = M1 vs M2 macrophages from mouse bone marrow cells, general formula (6) dyes (Table 7)
[5] = class based on resolution R, general formula (6) dyes (Table 7)
[6] = mouse bone marrow-derived M1 macrophages, channel listed per compound, general formula (6) dyes (Table 7)
[7] = mouse bone marrow-derived M2 macrophages, channel listed per compound, general formula (6) dyes (Table 7)
[8] = M1 vs M2 macrophages from mouse bone marrow cells, general formula (10) dyes (Table 8)
[9] = class based on resolution R, general formula (10) dyes (Table 8)
[10] = mouse bone marrow-derived M1 macrophages, channel listed per compound, general formula (10) dyes (Table 8)
[11] = mouse bone marrow-derived M2 macrophages, channel listed per compound, general formula (10) dyes (Table 8)
[12] = R=|FM1−FM2|/(WM1+WM2), compound 1 μM
[13] = fluorescence intensity at peak top of histogram, compound 1 μM, 37° C., 30 minutes

Structure (SMILES): CC1(C)C(/C=C/C=C/C=C/C=C2\N(CCCCS(=O)(=O)[O-])c3ccc4ccccc4c3C2(C)C)=[N+](CCCCS(=O)(=O)[O-])c2ccc3ccccc3c21.[Na+] [compound (86)]
- sorting of identified M1 and M2 macrophages [1]: could be each sorted with an FACS apparatus
- subtype more strongly stained [1]: stain the M2 macrophages more strongly than the M1 macrophages
- Resolution ratio R [2, 4]: 0.602
- Evaluation of macrophage subtype identification [2, 5]: A (The compound is very good in the subtype identification (namely, the resolution R is 0.5 or more))
- Peak position of M1 macrophage [2, 6]: 2.27
- Peak position of M2 macrophage [2, 7]: 6.37

Structure (SMILES): CCN(CC)c1ccc2cc(-c3nc4cc(Cl)ccc4o3)c(=O)oc2c1 [compound (120)]
- sorting of identified M1 and M2 macrophages [1]: could be each sorted with an FACS apparatus
- subtype more strongly stained [1]: stain the M1 macrophages more strongly than the M2 macrophages
- subtype more strongly stained ([3]; THP-1 derived M1 and M2): the M1 macrophages were stained more strongly by the compound (120) than the M2 macrophages
- Resolution ratio R [2, 8]: 0.676
- Evaluation of macrophage subtype identification [2, 9]: A (The compound is very good in the subtype identification (namely, the resolution R is 0.5 or more))
- Peak position of M1 macrophage [2, 10]: 10.1
- Peak position of M2 macrophage [2, 11]: 5.60
- subtype more strongly stained ([2]; two compounds used in combination, each 1 μM): more strongly stain the M1 macrophages than the M2 macrophages

Structure (SMILES): COC(=O)CCC(C(=O)OC)N1C(=O)/C(=C\c2ccc3c(c2)C2CCCC2N3c2ccc(OC)cc2)SC1=S (stereo not shown) [compound (4)]
- Resolution ratio R [3]: 0.372
- Evaluation of macrophage subtype identification [3]: B (the compound is good in the subtype identification (namely, the resolution R is 0.15 or more and less than 0.5))
- Peak position of M1 macrophage [3]: 26.5
- Peak position of M2 macrophage [3]: 17.9
- Selectivity [3]: M1
- Resolution ratio R [2, 12]: 1.125
- Peak position of M1 macrophage [2, 13]: 158
- Peak position of M2 macrophage [2, 13]: 45.4
- Evaluation of macrophage subtype identification ([2]; rated from resolution R): A (The compound is very good in the subtype identification (namely, the resolution R is 0.5 or more))

Structure (SMILES): CCN1c2ccc(/C=C3/SC(=S)N(CCC(=O)O)C3=O)cc2C2CCCC21 (stereo not shown) [(15)]
- Resolution ratio R [3]: 0.216
- Evaluation of macrophage subtype identification [3]: B (the compound is good in the subtype identification (namely, the resolution R is 0.15 or more and less than 0.5))
- Peak position of M1 macrophage [3]: 5.62
- Peak position of M2 macrophage [3]: 7.4
- Selectivity [3]: M2
- Resolution ratio R [2, 12]: 0.700
- Peak position of M1 macrophage [2, 13]: 7.52
- Peak position of M2 macrophage [2, 13]: 10.5
- Evaluation of macrophage subtype identification ([2]; rated from resolution R): A (The compound is very good in the subtype identification (namely, the resolution R is 0.5 or more))

Structure (SMILES): CCC1=C(CC)c2cc3[nH]c(cc4nc(cc5[nH]c(cc1n2)c(CC)c5CC)C(CC)=C4CC)c(CC)c3CC [(1), reference compound]
- difference in the staining intensity between the M1 macrophages and the M2 macrophages / identification [3]: no difference in the staining intensity
- Resolution ratio R [2, 4]: 0.006
- Resolution ratio R [2, 8]: 0.006
- Resolution ratio R ([2]; M1 vs M2 macrophages from mouse bone marrow cells, general formula (11) dyes (Table 9)): 0.006
- Resolution ratio R [2, 12]: 0.006
- Evaluation of macrophage subtype identification [2, 5]: C (the compound cannot identify the subtypes (namely, the resolution R is less than 0.15))
- Evaluation of macrophage subtype identification [2, 9]: C (the compound cannot identify the subtypes (namely, the resolution R is less than 0.15))
- Evaluation of macrophage subtype identification ([2]; class based on resolution R, general formula (11) dyes (Table 9)): C (the compound cannot identify the subtypes (namely, the resolution R is less than 0.15))
- Peak position of M1 macrophage [2, 13]: 1.70
- Peak position of M2 macrophage [2, 13]: 1.86
- difference in the staining intensity between the M1 macrophages and the M2 macrophages / identification [2]: no difference in the staining intensity
- Peak position of M1 macrophage [2, 6]: 1.70
- Peak position of M1 macrophage [2, 10]: 1.70
- Peak position of M1 macrophage ([2]; mouse bone marrow-derived M1 macrophages, channel listed per compound, general formula (11) dyes (Table 9)): 1.70
- Peak position of M2 macrophage [2, 7]: 1.86
- Peak position of M2 macrophage [2, 11]: 1.86
- Peak position of M2 macrophage ([2]; mouse bone marrow-derived M2 macrophages, channel listed per compound, general formula (11) dyes (Table 9)): 1.86
- Evaluation of macrophage subtype identification ([2]; rated from resolution R): C (the compound cannot identify the subtypes (namely, the resolution R is less than 0.15))
- Selectivity ([2]; general formula (6) dyes (Table 7)): No
- Selectivity ([2]; general formula (10) dyes (Table 8)): No

Structure (SMILES): O=C(O)CN1C(=O)/C(=C\c2cc(Br)c3c(c2)C2CCCC2N3c2ccc(Br)cc2)SC1=S (stereo not shown) [(12)]
- Resolution ratio R [3]: 0.276
- Evaluation of macrophage subtype identification [3]: B (the compound is good in the subtype identification (namely, the resolution R is 0.15 or more and less than 0.5))
- Peak position of M1 macrophage [3]: 37.4
- Peak position of M2 macrophage [3]: 46.5
- Selectivity [3]: M2
- Resolution ratio R [2, 12]: 0.594
- Peak position of M1 macrophage [2, 13]: 50.7
- Peak position of M2 macrophage [2, 13]: 97.7
- Evaluation of macrophage subtype identification ([2]; rated from resolution R): A (The compound is very good in the subtype identification (namely, the resolution R is 0.5 or more))

Structure (SMILES): COc1ccc(N2c3ccc(/C=C4\C(=O)NC(=O)C(C#N)=C4C)cc3C3CCCC32)cc1 (stereo not shown) [(2), reference compound]
- difference in the staining intensity between the M1 macrophages and the M2 macrophages / identification [3]: no difference in the staining intensity
- Resolution ratio R [2, 12]: 0.007
- Peak position of M1 macrophage [2, 13]: 0.86
- Peak position of M2 macrophage [2, 13]: 1.05
- difference in the staining intensity between the M1 macrophages and the M2 macrophages / identification [2]: no difference in the staining intensity
- Evaluation of macrophage subtype identification ([2]; rated from resolution R): C (the compound cannot identify the subtypes (namely, the resolution R is less than 0.15))

Structure (SMILES): O=C(O)CCN1C(=O)/C(=C\c2ccc3c(c2)C2CCCC2N3Cc2ccccc2)SC1=S (stereo not shown) [compound (3)]
- Resolution ratio R [3]: 0.257
- Evaluation of macrophage subtype identification [3]: B (the compound is good in the subtype identification (namely, the resolution R is 0.15 or more and less than 0.5))
- Peak position of M1 macrophage [3]: 9.63
- Peak position of M2 macrophage [3]: 12.3
- Selectivity [3]: M2
- Resolution ratio R [2, 12]: 0.622
- Peak position of M1 macrophage [2, 13]: 11.2
- Peak position of M2 macrophage [2, 13]: 25.0
- Evaluation of macrophage subtype identification ([2]; rated from resolution R): A (The compound is very good in the subtype identification (namely, the resolution R is 0.5 or more))
